Legend:
Assay type in all cases: in vivo
[1] = system: slender amaranth (Am); assay: Test Example 7: crop plant selectivity by upland field soil treatment (corn), herbicidal effects; parameters: scale not given here; conditions: dose 6.3 g ai/10a, 21st day after application
Description: (§1) (Test on Crop Plant Selectivity by Upland Field Soil Treatment)
(§2) In a plastic pot (surface area: 600 cm^2) filled with sand, corn (Ze), green foxtail (Se), pale smartweed (Po), slender amaranth (Am), common lambsquarters (Ch) and China jute (Ab) were sown and covered with soil. […] The plants were then cultured in a green house, and the evaluation of the herbicidal effects and phytotoxicity was conducted on the 21st day after the application in accordance with the standards as identified in Table 47.

[2] = system: green foxtail (Se); assay: as above; parameters: scale not given here; conditions: dose 6.3 g ai/10a, 21st day after application
Description: as §1, §2

[3] = system: common lambsquarters (Ch); assay: as above; parameters: scale not given here; conditions: dose 6.3 g ai/10a, 21st day after application
Description: as §1, §2

[4] = system: pale smartweed (Po); assay: as above; parameters: scale not given here; conditions: dose 6.3 g ai/10a, 21st day after application
Description: as §1, §2

[5] = system: China jute (Ab); assay: as above; parameters: scale not given here; conditions: dose 6.3 g ai/10a, 21st day after application
Description: as §1, §2

[6] = system: soybean (Gl); assay: Test Example 6: crop plant selectivity by upland field soil treatment (soybean), phytotoxicity; parameters: scale not given here; conditions: dose 6.3 g ai/10a, 21st day after application
Procedure, shortened: (§3)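 Soybean and weed seeds were sown in sand-filled pots and covered with soil, then given a pre-emergence soil application. Plants were grown on in a greenhouse, and herbicidal effect and crop phytotoxicity were scored against a set rating scale 21 days after application.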

[7] = system: slender amaranth (Am); assay: Test Example 2: herbicidal effects by upland field soil treatment; conditions: 100 g of the active ingredient per 10 ares;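 also: grade of growth control; 5 = at least 90%; 4 = 70 to 90%; 3 = 50 to 70%; 2 = 30 to 50%; 1 = 10 to 30%; 0 = under 10%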
Excerpt: (§4) (Test on Herbicidal Effects by Upland Field Soil Treatment)

[8] = system: barnyardgrass (Ec); assay: as above; conditions: 100 g of the active ingredient per 10 ares
Excerpt: as §4

[9] = system: rice flatsedge (Ci); assay: as above; conditions: 100 g of the active ingredient per 10 ares
Excerpt: as §4

[10] = system: Digitaria ciliaris (Di); assay: as above; conditions: 100 g of the active ingredient per 10 ares;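 also: grade of growth control; 5 = at least 90%; 4 = 70 to 90%; 3 = 50 to 70%; 2 = 30 to 50%; 1 = 10 to 30%; 0 = under 10%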
Excerpt: as §4

[11] = system: common lambsquarters (Ch); assay: as above; conditions: 100 g of the active ingredient per 10 ares
Excerpt: as §4

[12] = system: pale smartweed (Po); assay: as above; conditions: 100 g of the active ingredient per 10 ares
Excerpt: as §4

[13] = system: bulrush (Sc); assay: Test Example 1: herbicidal effects by paddy field soil treatment; conditions: 100 g of the active ingredient per 10 ares, 21st day after the application, index 0-5 of Table 47;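 also: grade of growth control; 5 = at least 90%; 4 = 70 to 90%; 3 = 50 to 70%; 2 = 30 to 50%; 1 = 10 to 30%; 0 = under 10%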
Procedure, shortened: (§5)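 Scoring of herbicidal effect came 21 days after application of 100 g active ingredient per 10 ares to flooded (3 cm) paddy-soil pots sown with barnyardgrass, monochoria and bulrush, kept in a greenhouse.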

[14] = system: barnyardgrass (Ec); assay: as above; conditions: 100 g of the active ingredient per 10 ares, 21st day after the application, index 0-5 of Table 47
Procedure, shortened: as §5

[15] = system: monochoria (Mo); assay: as above; conditions: 100 g of the active ingredient per 10 ares, 21st day after the application, index 0-5 of Table 47;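 also: grade of growth control; 5 = at least 90%; 4 = 70 to 90%; 3 = 50 to 70%; 2 = 30 to 50%; 1 = 10 to 30%; 0 = under 10%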
Procedure, shortened: as §5

[16] = system: slender amaranth (Am); assay: Test Example 6: crop plant selectivity by upland field soil treatment (soybean), herbicidal effects; parameters: scale not given here; conditions: dose 6.3 g ai/10a, 21st day after application
Procedure, shortened: as §3

[17] = system: green foxtail (Se); assay: as above; parameters: scale not given here; conditions: dose 6.3 g ai/10a, 21st day after application
Procedure, shortened: as §3

[18] = system: common lambsquarters (Ch); assay: as above; parameters: scale not given here; conditions: dose 6.3 g ai/10a, 21st day after application
Procedure, shortened: as §3

[19] = system: pale smartweed (Po); assay: as above; parameters: scale not given here; conditions: dose 6.3 g ai/10a, 21st day after application
Procedure, shortened: as §3

[20] = system: China jute (Ab); assay: as above; parameters: scale not given here; conditions: dose 6.3 g ai/10a, 21st day after application
Procedure, shortened: as §3

[21] = system: slender amaranth (Am); assay: Test Example 3: herbicidal effects by upland field foliage treatment; parameters: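 grade of growth control; 5 = at least 90%; 4 = 70 to 90%; 3 = 50 to 70%; 2 = 30 to 50%; 1 = 10 to 30%; 0 = under 10%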
Procedure, shortened: (§6)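 Using plants cultured for 2 weeks in a greenhouse from seed sown in soil-covered sand (pots 120 cm^2), the compounds were applied to foliage, and weed control was graded by standard criteria 14 days thereafter.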

[22] = system: barnyardgrass (Ec); assay: as above; parameters: scale not given here
Procedure, shortened: as §6

[23] = system: rice flatsedge (Ci); assay: as above; parameters: scale not given here
Procedure, shortened: as §6

[24] = system: Diaitaria ciliaris (Di); assay: as above; parameters: scale not given here
Procedure, shortened: as §6

[25] = system: common lambsquarters (Ch); assay: as above; parameters: scale not given here
Procedure, shortened: as §6

[26] = system: pale smartweed (Po); assay: as above; parameters: scale not given here
Procedure, shortened: as §6

[27] = system: slender amaranth (Am); assay: Test Example 5: crop plant selectivity by upland field soil treatment (wheat), herbicidal effects; parameters: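 grade of growth control; 5 = at least 90%; 4 = 70 to 90%; 3 = 50 to 70%; 2 = 30 to 50%; 1 = 10 to 30%; 0 = under 10%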; conditions: dose 6.3 g ai/10a, 21st day after application
Procedure, shortened: (§7)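 Pots of sand sown with wheat and weeds (incl. Digitaria ciliaris, green foxtail, slender amaranth), seeds covered with soil, soil-applied treatment. Grown in greenhouse; herbicidal effect and crop phytotoxicity scored visually on day 21 after application against a rating scale.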

[28] = system: green foxtail (Se); assay: as above; parameters: scale not given here; conditions: dose 6.3 g ai/10a, 21st day after application
Procedure, shortened: as §7

[29] = system: common lambsquarters (Ch); assay: as above; parameters: scale not given here; conditions: dose 6.3 g ai/10a, 21st day after application
Procedure, shortened: as §7

[30] = system: pale smartweed (Po); assay: as above; parameters: scale not given here; conditions: dose 6.3 g ai/10a, 21st day after application
Procedure, shortened: as §7

[31] = system: China jute (Ab); assay: as above; parameters: scale not given here; conditions: dose 6.3 g ai/10a, 21st day after application
Procedure, shortened: as §7

[32] = system: slender amaranth (Am); assay: Test Example 4: crop plant selectivity by upland field soil treatment (cotton), herbicidal effects; parameters: scale not given here; conditions: dose 6.3 g ai/10 a, evaluated 21st day after application
Procedure, shortened: (§8)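 Upland soil treatment: crop and weed seeds in sand pots under a soil cover, compound applied to soil, greenhouse-grown, rated visually 21 d later.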

[33] = system: green foxtail (Se); assay: as above; parameters: scale not given here; conditions: dose 6.3 g ai/10 a, evaluated 21st day after application
Procedure, shortened: as §8

[34] = system: common lambsquarters (Ch); assay: as above; parameters: scale not given here; conditions: dose 6.3 g ai/10 a, evaluated 21st day after application
Procedure, shortened: as §8

[35] = system: pale smartweed (Po); assay: as above; parameters: scale not given here; conditions: dose 6.3 g ai/10 a, evaluated 21st day after application
Procedure, shortened: as §8

[36] = system: China jute (Ab); assay: as above; parameters: scale not given here; conditions: dose 6.3 g ai/10 a, evaluated 21st day after application
Procedure, shortened: as §8

[37] = system: wheat (Tr); assay: Test Example 5: crop plant selectivity by upland field soil treatment (wheat), phytotoxicity; parameters: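 grade of crop injury; 5 = at least 90%; 4 = 70 to 90%; 3 = 50 to 70%; 2 = 30 to 50%; 1 = 10 to 30%; 0 = under 10%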; conditions: dose 6.3 g ai/10a, 21st day after application
Procedure, shortened: as §7

[38] = system: corn (Ze); assay: Test Example 7: crop plant selectivity by upland field soil treatment (corn), phytotoxicity; parameters: scale not given here; conditions: dose 6.3 g ai/10a, 21st day after application
Description: as §1, §2

[39] = system: cotton (Go); assay: Test Example 4: crop plant selectivity by upland field soil treatment (cotton), phytotoxicity; parameters: scale not given here; conditions: dose 6.3 g ai/10 a, evaluated 21st day after application
Procedure, shortened: as §8

[40] = evaluated on the 21st day after application
[41] = 100 g active ingredient per 10 ares, evaluated 14th day after treatment
[42] = 21st day after the application, index 0-5 of Table 47
[43] = 100 g of the active ingredient per 10 ares, evaluated on the 14th day after treatment

SMILES	Herbicidal effects Am [1]	Herbicidal effects Se [2]	Herbicidal effects Ch [3]	Herbicidal effects Po [4]	Herbicidal effects Ab [5]	Phytotoxicity Gl [6]	Herbicidal effects Sc [13]	Herbicidal effects Ec [14]	Herbicidal effects Mo [15]	Herbicidal effects Am [16]	Herbicidal effects Se [17]	Herbicidal effects Ch [18]	Herbicidal effects Po [19]	Herbicidal effects Ab [20]	Herbicidal effects Am [27]	Herbicidal effects Se [28]	Herbicidal effects Ch [29]	Herbicidal effects Po [30]	Herbicidal effects Ab [31]	Herbicidal effects Am [32]	other results
COCCOCOc1cc(-c2ccc(C(F)(F)F)n(C)c2=O)c(F)cc1Cl [Compound 1-207]	5	5	5	5	5	1	5	5	5	5	5	5	5	5	5	5	5	5	5	5	Herbicidal effects Am [7, 40]: 5; Herbicidal effects Ec [8, 40]: 5; Herbicidal effects Ci [9, 40]: 5; Herbicidal effects Di [10, 40]: 5; Herbicidal effects Ch [11, 40]: 5; Herbicidal effects Po [12, 40]: 5; Herbicidal effects Am [21, 41]: 5; Herbicidal effects Ec [22, 41]: 5; Herbicidal effects Ci [23, 41]: 5; Herbicidal effects Di [24, 41]: 5; Herbicidal effects Ch [25, 41]: 5; Herbicidal effects Po [26, 41]: 5; Herbicidal effects Se [33]: 5; Herbicidal effects Ch [34]: 5; Herbicidal effects Po [35]: 5; Herbicidal effects Ab [36]: 5; Phytotoxicity Tr [37]: 1; Phytotoxicity Ze [38]: 1; Phytotoxicity Go [39]: 0
CSc1cc(-c2ccc(C(F)(F)F)n(C)c2=O)c(F)cc1Cl [Compound No. 1-87, 3-(4-chloro-2-fluoro-5-methylthiophenyl)-1-methyl-6-trifluoromethyl-2(1H)-pyridone]	5	5	5	5	5	1	5	5	5	5	5	5	5	5	5	5	5	5	5	5	Herbicidal effects Am [7, 42]: 5; Herbicidal effects Ec [8, 42]: 5; Herbicidal effects Ci [9, 42]: 5; Herbicidal effects Di [10, 42]: 5; Herbicidal effects Ch [11, 42]: 5; Herbicidal effects Po [12, 42]: 5; Herbicidal effects Am [21, 43]: 5; Herbicidal effects Ec [22, 43]: 5; Herbicidal effects Ci [23, 43]: 5; Herbicidal effects Di [24, 43]: 5; Herbicidal effects Ch [25, 43]: 5; Herbicidal effects Po [26, 43]: 5; Herbicidal effects Se [33]: 5; Herbicidal effects Ch [34]: 5; Herbicidal effects Po [35]: 5; Herbicidal effects Ab [36]: 5; Phytotoxicity Tr [37]: 1; Phytotoxicity Ze [38]: 1; Phytotoxicity Go [39]: 1

— patent publication US6472348B1, “Pyridone derivatives and herbicides” (Kumiai Chemical Industry Co., Ltd., priority 1996, dated 2002)
